In PubChem BioAssay AID248 (DTP/NCI, 2004):
Where “and” joins values, the source holds several entries; their conditions need not be identical. Identical values can stand only once. Toxic doses and inconclusive results are not listed. Rule as the data show it: active = T/C of 150% or more; inactive = T/C below 125%.

System: L1210 leukemia ip in BDF1 mice, survival T/C
Assay: NCI In Vivo Anticancer Drug Screen. Data for tumor model L1210 Leukemia (intraperitoneal) in B6D2F1 (BDF1) mice
Settings: endpoint: mean survival time, higher = longer survival
Procedure, shortened: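 Antitumor effect is assessed in tumor-bearing animals. Survival in the compound arm is compared with a vehicle-dosed control arm and expressed as their quotient.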

[1] = dose: 100.0 mg/kg/injection, schedule: Q01DX001 (ip), vehicle: saline
[2] = dose: 100.0 mg/kg/injection, schedule: Q01DX009 (ip), vehicle: saline
[3] = dose: 200.0 mg/kg/injection, schedule: Q01DX001 (ip), vehicle: saline
[4] = dose: 200.0 mg/kg/injection, schedule: Q01DX009 (ip), vehicle: saline
[5] = dose: 400.0 mg/kg/injection, schedule: Q01DX001 (ip), vehicle: saline
[6] = dose: 100.0 mg/kg/injection, schedule: Q01DX001 (ip), vehicle: Klucel (hydroxypropylcellulose) (HPC)
[7] = dose: 200.0 mg/kg/injection, schedule: Q01DX001 (ip), vehicle: Klucel (hydroxypropylcellulose) (HPC)
[8] = dose: 400.0 mg/kg/injection, schedule: Q01DX001 (ip), vehicle: Klucel (hydroxypropylcellulose) (HPC)
[9] = dose: 100.0 mg/kg/injection, schedule: Q04DX002 (ip), vehicle: saline
[10] = dose: 25.0 mg/kg/injection, schedule: Q04DX002 (ip), vehicle: saline
[11] = dose: 50.0 mg/kg/injection, schedule: Q04DX002 (ip), vehicle: saline
[12] = dose: 100.0 mg/kg/injection, schedule: Q01DX009 (ip), vehicle: saline with Tween-80
[13] = dose: 100.0 mg/kg/injection, schedule: Q04DX002 (ip), vehicle: saline with Tween-80
[14] = dose: 100.0 mg/kg/injection, schedule: Q04DX003 (ip), vehicle: Klucel (hydroxypropylcellulose) (HPC)
[15] = dose: 200.0 mg/kg/injection, schedule: Q04DX003 (ip), vehicle: Klucel (hydroxypropylcellulose) (HPC)
[16] = dose: 100.0 mg/kg/injection, schedule: Q01DX009 (ip), vehicle: Klucel (hydroxypropylcellulose) (HPC)
[17] = dose: 200.0 mg/kg/injection, schedule: Q01DX009 (ip), vehicle: Klucel (hydroxypropylcellulose) (HPC)
[18] = dose: 400.0 mg/kg/injection, schedule: Q01DX009 (ip), vehicle: Klucel (hydroxypropylcellulose) (HPC)
[19] = dose: 400.0 mg/kg/injection, schedule: Q04DX003 (ip), vehicle: Klucel (hydroxypropylcellulose) (HPC)

Measured: T/C

Cc1ccc(S(=O)(=O)N2CCC(Br)C(=O)c3ccccc32)cc1 (stereo not drawn)
inactive: [1] 94 % of control | [2] 107 % of control | [3] 107 % of control | [4] 109 % of control | [5] 100 % of control | dose: 400.0 mg/kg/injection, schedule: Q01DX009 (ip), vehicle: saline 97 % of control

O=C(O)CS(=O)(=O)c1ccccc1
inactive: dose: 100.0 mg/kg/injection, schedule: Q04DX003 (ip), vehicle: saline 95 % of control | dose: 200.0 mg/kg/injection, schedule: Q04DX003 (ip), vehicle: saline 105 % of control

Cc1cccc(-c2nc(N)nc(N)n2)c1
inactive: dose: 75.0 mg/kg/injection, schedule: Q01DX001 (ip), vehicle: saline 106 % of control | dose: 150.0 mg/kg/injection, schedule: Q01DX001 (ip), vehicle: saline 104 % of control | dose: 300.0 mg/kg/injection, schedule: Q01DX001 (ip), vehicle: saline 101 % of control

Clc1ccc(/C=N\N2CCCCCC2)cc1
inactive: [6] 105 % of control | [7] 100 % of control | [8] 98 % of control

O=C(NCCO)C(=O)NCCO
inactive: [9] 115 % of control | dose: 200.0 mg/kg/injection, schedule: Q04DX002 (ip), vehicle: saline 110 % of control | dose: 400.0 mg/kg/injection, schedule: Q04DX002 (ip), vehicle: saline 96 % of control

CC1(CBr)OCCCO1
inactive: dose: 25.0 mg/kg/injection, schedule: Q01DX009 (ip), vehicle: saline with Tween-80 96 % of control | [10] 93 % of control | dose: 50.0 mg/kg/injection, schedule: Q01DX009 (ip), vehicle: saline with Tween-80 103 % of control | [11] 93 % of control | [12] 103 % of control | [13] 95 % of control | [9] 93 % of control

CN1C2CC(=O)CC1C1CCC2C1
inactive: dose: 15.0 mg/kg/injection, schedule: Q01DX001 (ip), vehicle: carboxymethylcellulose (CMC) 103 % of control | dose: 30.0 mg/kg/injection, schedule: Q01DX001 (ip), vehicle: carboxymethylcellulose (CMC) 101 % of control

Cc1ccc(COC(=O)Nc2ccc(Cl)c([N+](=O)[O-])c2)cc1
inactive: [12] 92 % of control | dose: 100.0 mg/kg/injection, schedule: Q04DX003 (ip), vehicle: saline with Tween-80 102 % of control | dose: 200.0 mg/kg/injection, schedule: Q01DX009 (ip), vehicle: saline with Tween-80 100 % of control | dose: 200.0 mg/kg/injection, schedule: Q04DX003 (ip), vehicle: saline with Tween-80 100 % of control | dose: 400.0 mg/kg/injection, schedule: Q01DX009 (ip), vehicle: saline with Tween-80 95 % of control | dose: 400.0 mg/kg/injection, schedule: Q04DX003 (ip), vehicle: saline with Tween-80 100 % of control

Nc1ccccc1SC1CC(=O)N(c2ccc3c(c2)OCO3)C1=O (stereo not drawn)
inactive: [13] 93 % of control | dose: 200.0 mg/kg/injection, schedule: Q04DX002 (ip), vehicle: saline with Tween-80 101 % of control | dose: 400.0 mg/kg/injection, schedule: Q04DX002 (ip), vehicle: saline with Tween-80 86 % of control

O=C1COC(=O)CO1
inactive: dose: 50.0 mg/kg/injection, schedule: Q04DX003 (ip), vehicle: Klucel (hydroxypropylcellulose) (HPC) 104 % of control | [2] 86 % of control | [14] 100 % of control | [4] 86 % of control | [15] 96 % of control

CC1(C)C/C(=C\c2cccc([N+](=O)[O-])c2)C(=O)c2ccccc21
inactive: [6] 94 % of control | [7] 93 % of control | [8] 94 % of control

Cc1cccc(C)c1NC(=O)Oc1c(C)cccc1C
inactive: [16] 106 % of control | [14] 102 % of control | [17] 101 % of control | [15] 102 % of control | [18] 97 % of control | [19] 100 % of control

CCCCOC(OCCCC)C(C)=O
inactive: [16] 96 % of control | [14] 113 % of control | [17] 96 % of control | [15] 92 % of control | [18] 101 % of control | [19] 102 % of control

COc1ccccc1/C=C(/C)C(C)=O
inactive: dose: 75.0 mg/kg/injection, schedule: Q04DX003 (ip), vehicle: Klucel (hydroxypropylcellulose) (HPC) 102 % of control | dose: 100.0 mg/kg/injection, schedule: Q01DX001 (ip), vehicle: carboxymethylcellulose (CMC) 103 % of control | dose: 150.0 mg/kg/injection, schedule: Q04DX003 (ip), vehicle: Klucel (hydroxypropylcellulose) (HPC) 97 % of control | dose: 200.0 mg/kg/injection, schedule: Q01DX001 (ip), vehicle: carboxymethylcellulose (CMC) 108 % of control | dose: 300.0 mg/kg/injection, schedule: Q04DX003 (ip), vehicle: Klucel (hydroxypropylcellulose) (HPC) 94 % of control | dose: 400.0 mg/kg/injection, schedule: Q01DX001 (ip), vehicle: carboxymethylcellulose (CMC) 97 % of control

CCOC(=O)C(/C=N/C(N)=O)=C(\C)O
inactive: [16] 105 % of control | [14] 102 % of control | [17] 95 % of control | [15] 101 % of control | [18] 106 % of control | [19] 92 % of control

CCCCCCCCCCCCC(CCCCCCCCCCCC)c1ccccc1
inactive: [6] 112 % of control | [7] 100 % of control | [8] 96 % of control

CC1CCC(NCCOC(=O)c2ccc(N)cc2)CC1 (stereo not drawn)
inactive: dose: 75.0 mg/kg/injection, schedule: Q01DX001 (ip), vehicle: other 94 % of control | dose: 150.0 mg/kg/injection, schedule: Q01DX001 (ip), vehicle: other 108 % of control

CCCCCCCCCCCNC=O
inactive: [1] 103 % of control | [3] 101 % of control | [5] 101 % of control

CCCCc1ccc(C(=O)c2ccccc2)c2c1C(=O)c1ccccc1C2=O
inactive: [16] 97 % of control | [14] 92 % of control | [17] 94 % of control | [15] 92 % of control | [18] 95 % of control | [19] 96 % of control

O=C(/C=C/c1ccc([N+](=O)[O-])cc1)Nc1cccc(S(=O)(=O)F)c1
inactive: [1] 107 % of control | [3] 112 % of control | [5] 101 % of control

COc1ccc(C2C(=O)c3ccccc3C2=O)cc1OC
inactive: [6] 94 % of control | [7] 88 % of control

CC#CC(=O)O
inactive: dose: 6.25 mg/kg/injection, schedule: Q01DX009 (ip), vehicle: saline 106 % of control | dose: 12.5 mg/kg/injection, schedule: Q01DX009 (ip), vehicle: saline 106 % of control | dose: 25.0 mg/kg/injection, schedule: Q01DX005 (ip), vehicle: saline 104 % of control | dose: 25.0 mg/kg/injection, schedule: Q01DX009 (ip), vehicle: saline 98 % of control and 100 % of control | [10] 95 % of control | dose: 50.0 mg/kg/injection, schedule: Q01DX005 (ip), vehicle: saline 97 % of control | [11] 102 % of control | dose: 100.0 mg/kg/injection, schedule: Q01DX005 (ip), vehicle: saline 93 % of control | [9] 104 % of control

C(=C\c1ccccc1)/CN1CCOCC1
inactive: [10] 94 % of control | [11] 94 % of control | [9] 105 % of control
